In data set [1] the target is T1, Androgen receptor (Homo sapiens) (UniProt P10275).
T1 sequence (whole entry): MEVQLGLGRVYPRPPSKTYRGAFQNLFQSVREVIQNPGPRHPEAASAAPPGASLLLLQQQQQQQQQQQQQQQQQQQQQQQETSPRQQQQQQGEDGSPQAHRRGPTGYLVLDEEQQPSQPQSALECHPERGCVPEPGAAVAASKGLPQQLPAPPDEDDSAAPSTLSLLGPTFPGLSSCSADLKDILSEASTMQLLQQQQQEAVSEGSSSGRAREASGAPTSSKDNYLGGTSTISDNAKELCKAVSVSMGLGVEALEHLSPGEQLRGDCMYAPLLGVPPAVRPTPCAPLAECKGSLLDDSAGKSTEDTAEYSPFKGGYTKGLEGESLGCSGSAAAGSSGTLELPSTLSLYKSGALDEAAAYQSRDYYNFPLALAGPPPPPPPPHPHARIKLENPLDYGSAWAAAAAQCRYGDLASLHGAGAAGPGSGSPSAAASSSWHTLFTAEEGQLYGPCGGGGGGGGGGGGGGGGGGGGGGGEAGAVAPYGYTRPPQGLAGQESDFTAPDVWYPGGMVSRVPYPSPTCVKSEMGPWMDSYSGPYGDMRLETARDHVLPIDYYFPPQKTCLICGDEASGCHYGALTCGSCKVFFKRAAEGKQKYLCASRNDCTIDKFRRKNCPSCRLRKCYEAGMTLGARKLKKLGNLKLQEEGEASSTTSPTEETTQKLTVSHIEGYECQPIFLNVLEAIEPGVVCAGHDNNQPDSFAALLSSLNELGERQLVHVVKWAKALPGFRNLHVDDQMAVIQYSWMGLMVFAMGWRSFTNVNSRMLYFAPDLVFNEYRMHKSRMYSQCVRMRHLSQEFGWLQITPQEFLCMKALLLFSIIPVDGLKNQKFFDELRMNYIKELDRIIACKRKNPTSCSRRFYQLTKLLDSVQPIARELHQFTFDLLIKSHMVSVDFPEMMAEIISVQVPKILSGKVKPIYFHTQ
Briefly: Induction of AR degradation in human LNCap cells at 20 uM by Western blot analysis. In kind it is cell-based. The following applies: time 2-24 hrs, TDE = time-dependent effect. A general note: A western blot detects proteins with antibodies after separation by electrophoresis.

Data set [2] deals with LNCaP. Briefly: cells. The following applies: Homo sapiens.
Description: Antiproliferative activity against human LNCAP cells assessed as reduction in cell viability measured after 6 days by CellTiter-Glo assay
Data set [3] in a line: Tmax in Sprague-Dawley rat at 10 mg/kg, po measured up to 24 hrs by LC-MS/MS analysis. In kind it is ADME, organism-based. As to conditions: in vivo.
For data set [4], the system named is LNCaP. Briefly: Antiproliferative activity against human LNCAP cells assessed as reduction in cell viability at 10 uM measured after 6 days by CellTiterGlo assay relative to control. As to conditions: Homo sapiens, LNCaP, time 6 day. Type of data set: functional.
Data set [5] is described as follows: Inhibition of TP-stimulated andogen-sensitive seminal vesicle growth in castrated Sprague-Dawley rat at 20 mg/kg, po administered for 10 days and measured after 24 hrs last post dose by hershberger assay relative to control. The following applies: Rattus norvegicus, Sprague-Dawley, 576 h. In kind it is functional.
Data set [6] has as its target T1, Androgen receptor (Homo sapiens). Briefly: Induction of AR degradation in human LNCap cells at 20 uM measured after 24 hrs by Western blot analysis. In kind it is cell-based.
Data set [7] in a line: Terminal half life in Sprague-Dawley rat at 10 mg/kg, po measured up to 24 hrs by LC-MS/MS analysis. In kind it is ADME, organism-based. As to conditions: in vivo, read-out: beta t1/2 (converted).
Data set [8] is described as follows: Toxicity in castrated BALB/c nude mouse xenografted with enzalutamide-resisitant human C4-2B cells assessed as body weight loss at 30 mg/kg, po qd measured after 28 days. Type of data set: organism-based, LNCaP C4-2B. As to conditions: in vivo, 672 h, time 28 day.
Data set [9] deals with CWR22R. Briefly: Antiproliferative activity against human 22Rv1 cells expressing AR-v7 assessed as reduction in cell viability measured after 6 days by CTG assay. Type of data set: functional, cell-based.
Data set [10] addresses Androgen receptor (Homo sapiens, UniProt P10275, F877L). Briefly: Antagonist activity at androgen receptor F876L mutant (unknown origin) expressed in HEK293 cells incubated for 24 hrs by luciferase reporter assay. Type of data set: cell-based. For orientation: A reporter such as luciferase makes a cellular process visible.
Data set [11] addresses T2, Androgen receptor (Homo sapiens, UniProt P10275).
T2 sequence (P10275 whole entry): T1 sequence (whole entry)
Briefly: Induction of AR degradation in human LNCap cells incubated for 24 hrs by sandwich ELISA analysis. Type of data set: cell-based. (In general: An ELISA detects its analyte on a solid surface through an enzyme-linked reagent.)

The nature of data set [12]: Cmax in Sprague-Dawley rat at 10 mg/kg, po measured up to 24 hrs by LC-MS/MS analysis. In kind it is ADME, organism-based. More on the design: dose 10 mg/kg, time < 24 hrs, route po. As to conditions: in vivo.
Data set [13] concerns Androgen receptor (Homo sapiens), P10275 [UNDEFINED MUTATION]. The data set is described as follows: Induction of AR-v7 degradation in human 22Rv1 cells incubated for 24 hrs by Western blot analysis. Type of data set: cell-based. As to conditions: dose 1-20 µM, DDE = dose-dependent effect.
A further data set has as its system LNCaP C4-2B. Briefly: Antitumor activity against enzalutamide-resisitant human C4-2B cells xenografted in castrated BALB/c nude mouse assessed as change in tumor volume at 30 mg/kg, po qd measured after 4 weeks. In kind it is functional.
Data set [14] deals with Voltage-gated inwardly rectifying potassium channel KCNH2 (Homo sapiens, UniProt Q12809). Briefly: Inhibition of hERG potassium channel at -80 mV holding potential incubated for 3 mins by automated patch clamp method. Type of data set: toxicity.
The target in data set [15] is T3, Steroid 17-alpha-hydroxylase/17,20 lyase (Homo sapiens, UniProt P05093).
T3 sequence (P05093 whole entry): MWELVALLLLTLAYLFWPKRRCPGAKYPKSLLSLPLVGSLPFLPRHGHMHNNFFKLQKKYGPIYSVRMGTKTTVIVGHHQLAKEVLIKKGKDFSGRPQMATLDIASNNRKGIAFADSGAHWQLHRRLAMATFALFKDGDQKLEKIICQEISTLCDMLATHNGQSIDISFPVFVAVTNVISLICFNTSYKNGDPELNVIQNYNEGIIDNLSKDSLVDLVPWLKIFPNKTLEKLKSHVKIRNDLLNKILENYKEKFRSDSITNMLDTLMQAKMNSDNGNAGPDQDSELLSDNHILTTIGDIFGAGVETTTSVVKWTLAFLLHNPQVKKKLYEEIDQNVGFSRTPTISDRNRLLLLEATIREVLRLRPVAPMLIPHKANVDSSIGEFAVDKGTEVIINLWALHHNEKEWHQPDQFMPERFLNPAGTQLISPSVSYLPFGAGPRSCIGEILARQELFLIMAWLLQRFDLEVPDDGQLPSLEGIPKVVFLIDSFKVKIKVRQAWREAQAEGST
Briefly: Inhibition of human recombinant CYP17A1 incubated for 5 mins in presence of NADPH by LC-MS/MS analysis. Type of data set: ADME.

Data set [16] has as its target T2, Androgen receptor. Briefly: Antagonist activity at DHT-induced Androgen receptor transcriptional activity in human HEK293 cells measured after 24 hrs by Steady-Glo reagent based assay. In kind it is cell-based.
Data set [17] in a line: AUC (0 to t) in Sprague-Dawley rat at 10 mg/kg, po measured up to 24 hrs by LC-MS/MS analysis. In kind it is ADME, organism-based. Details: time < 24 hrs, dose 10 mg/kg, route po. The following applies: in vivo.
The target of data set [18] is Androgen receptor (Homo sapiens, UniProt P10275, T878A). The data set is described as follows: Antagonist activity at androgen receptor T877A mutant (unknown origin) expressed in HEK293 cells incubated for 24 hrs by luciferase reporter assay. Type of data set: cell-based.
For data set [19], the system named is CWR22R. Briefly: Antiproliferative activity against human 22Rv1 cells expressing AR-v7 assessed as reduction in cell viability at 30 uM measured after 6 days by CTG assay. As to conditions: time 6 day. In kind it is functional.
Data set [20] is described as follows: Antagonist activity at androgen receptor W741L mutant (unknown origin) expressed in HEK293 cells incubated for 24 hrs by luciferase reporter assay. In kind it is cell-based. The following applies: Homo sapiens, HEK293, 24 h.
Data set [21] can be described thus: Inhibition of TP-stimulated andogen-sensitive ventral prostate growth in castrated Sprague-Dawley rat at 20 mg/kg, po administered for 10 days and measured after 24 hrs last post dose by hershberger assay relative to control. In kind it is functional. The following applies: Rattus norvegicus, Sprague-Dawley, 240 h, time 10 day.

Here are results for one compound from ChEMBL document CHEMBL5113526, “Design, Synthesis, and Biological Evaluation of Androgen Receptor Degrading and Antagonizing Bifunctional Steroidal Analogs for the Treatment of Advanced Prostate Cancer” (J Med Chem, 2022).

The source made the active and inactive calls. No cut-off for these calls is given here.

One may read the IC50 as the midpoint of a concentration-inhibition curve. Usually Tmax stands for the time at which the peak concentration occurs. As usually defined, the inhibition is the relative decrease from the control value, in per cent. As usually defined, the inhibition in vivo is the drop in the measured response relative to a control, in per cent. Low values mean a weak effect, high ones a strong effect. The DC50 is the midpoint of the concentration-degradation curve. One may read the Cmax as the maximum level reached in the sampled fluid or tissue. As a reminder, the AUC(0-t) is exposure summed from dosing to a finite time, without extrapolation to infinity. Read a high AUC(0-t) as high exposure.

Chain of Androgen receptor (Homo sapiens, UniProt P10275, F877L) (P10275 whole entry F877L): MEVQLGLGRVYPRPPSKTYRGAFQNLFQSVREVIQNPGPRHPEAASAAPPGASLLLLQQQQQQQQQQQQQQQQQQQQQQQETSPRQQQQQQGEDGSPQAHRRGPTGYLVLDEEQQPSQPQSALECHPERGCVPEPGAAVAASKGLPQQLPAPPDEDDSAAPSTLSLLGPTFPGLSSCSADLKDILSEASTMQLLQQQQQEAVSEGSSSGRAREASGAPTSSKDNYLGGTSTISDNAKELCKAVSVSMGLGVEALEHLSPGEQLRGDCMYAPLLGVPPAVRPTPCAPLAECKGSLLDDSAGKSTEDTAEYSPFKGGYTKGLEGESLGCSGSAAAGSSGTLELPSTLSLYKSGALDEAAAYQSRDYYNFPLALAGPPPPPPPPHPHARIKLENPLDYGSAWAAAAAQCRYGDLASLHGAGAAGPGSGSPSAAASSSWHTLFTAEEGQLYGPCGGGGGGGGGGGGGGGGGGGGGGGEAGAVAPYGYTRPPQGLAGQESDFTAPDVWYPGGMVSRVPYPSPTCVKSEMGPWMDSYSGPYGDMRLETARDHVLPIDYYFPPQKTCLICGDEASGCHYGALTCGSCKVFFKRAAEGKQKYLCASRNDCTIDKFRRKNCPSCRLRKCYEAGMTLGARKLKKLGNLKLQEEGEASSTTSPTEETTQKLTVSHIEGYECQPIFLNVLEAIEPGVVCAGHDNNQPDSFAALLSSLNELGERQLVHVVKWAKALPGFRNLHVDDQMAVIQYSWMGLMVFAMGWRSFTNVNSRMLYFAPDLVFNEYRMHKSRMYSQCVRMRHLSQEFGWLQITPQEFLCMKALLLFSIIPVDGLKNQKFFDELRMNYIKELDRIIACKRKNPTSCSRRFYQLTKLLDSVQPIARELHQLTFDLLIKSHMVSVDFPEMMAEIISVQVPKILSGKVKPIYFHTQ
Chain of Voltage-gated inwardly rectifying potassium channel KCNH2 (Q12809 whole entry): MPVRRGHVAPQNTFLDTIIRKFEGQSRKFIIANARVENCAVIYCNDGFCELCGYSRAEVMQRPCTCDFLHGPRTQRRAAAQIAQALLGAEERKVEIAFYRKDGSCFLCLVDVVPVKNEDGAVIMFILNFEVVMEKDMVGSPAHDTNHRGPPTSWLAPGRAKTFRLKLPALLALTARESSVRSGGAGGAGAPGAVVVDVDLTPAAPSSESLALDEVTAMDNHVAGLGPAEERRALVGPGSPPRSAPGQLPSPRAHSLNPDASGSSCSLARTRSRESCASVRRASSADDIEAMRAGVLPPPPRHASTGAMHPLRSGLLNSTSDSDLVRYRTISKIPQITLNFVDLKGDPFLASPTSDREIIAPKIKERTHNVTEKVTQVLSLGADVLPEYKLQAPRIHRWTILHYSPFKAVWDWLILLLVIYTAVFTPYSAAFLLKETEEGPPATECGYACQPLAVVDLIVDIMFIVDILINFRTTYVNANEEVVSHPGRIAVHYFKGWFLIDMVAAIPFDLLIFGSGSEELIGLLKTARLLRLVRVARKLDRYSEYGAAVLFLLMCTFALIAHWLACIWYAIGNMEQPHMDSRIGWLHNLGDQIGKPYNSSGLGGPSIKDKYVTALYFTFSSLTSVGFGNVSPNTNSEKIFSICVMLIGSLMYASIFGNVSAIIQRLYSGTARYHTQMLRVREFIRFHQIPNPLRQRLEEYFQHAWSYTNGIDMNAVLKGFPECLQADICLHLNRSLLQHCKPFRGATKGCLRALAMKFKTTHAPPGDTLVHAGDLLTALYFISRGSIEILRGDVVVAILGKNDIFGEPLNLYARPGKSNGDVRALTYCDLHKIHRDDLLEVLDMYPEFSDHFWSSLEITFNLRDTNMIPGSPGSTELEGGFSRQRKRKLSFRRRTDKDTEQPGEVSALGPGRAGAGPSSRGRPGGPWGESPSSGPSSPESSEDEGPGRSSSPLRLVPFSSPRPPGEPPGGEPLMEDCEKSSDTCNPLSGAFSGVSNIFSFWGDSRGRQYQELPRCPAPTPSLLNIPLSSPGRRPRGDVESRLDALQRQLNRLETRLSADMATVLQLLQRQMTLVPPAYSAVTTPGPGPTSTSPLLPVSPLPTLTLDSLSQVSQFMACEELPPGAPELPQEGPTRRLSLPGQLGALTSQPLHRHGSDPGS
Chain of Androgen receptor (Homo sapiens, UniProt P10275, T878A) (P10275 whole entry T878A): as the sequence (P10275 whole entry F877L) above, with L877F, T878A counted along it

On to `Cc1cn(C2=CC[C@H]3[C@@H]4CC=C5C[C@@H](NC(=O)c6ccncc6)CC[C@]5(C)[C@H]4CC[C@]23C)cn1`, for which the values for the Activity result in data set [1], in data set [8] and in data set [13] were “Tde”, “Non-Toxic” and “Dde”, respectively. Moreover, the IC50 in the data set with LNCaP [2] was 205 nM; in the data set on CWR22R [9] it was 590 nM; against Androgen receptor [10], 268 nM; in [14] it was 6470 nM; in [15] it was 2590 nM; at Androgen receptor [16], 247 nM. The IC50 on Androgen receptor [18] was 209 nM; in data set [20], 490 nM. For the same compound, the Tmax in data set [3] came out at 2.17 h. Also, in the data set on LNCaP [4], the inhibition at 10 µM stood at 99.3%. For the same compound, the results for the inhibition in vivo at 20 mg/kg in data set [5] and in [21] were 62% and 66%, respectively. Besides, the result in [6] was Active. Also, the half-life in data set [7] was 2.8 h. This compound also yielded a DC50 at Androgen receptor [11] of 2840 nM. Besides, the highest level in [12] (Cmax) was 2670 ng/mL. The T/C in the data set with LNCaP C4-2B is recorded as -14%. In data set [17], this compound yielded an AUC(0-t) at 24 h of 24800 ng·h/mL. Besides, the inhibition at 30 µM in the data set with CWR22R [19] came to 37%.
